We go through 28 compounds from patent publication US20250171438A1 (Agios Pharmaceuticals, Inc., priority 2022, published 2025).

The experiment concerns the target T1, human PAH with the R408W mutation (Homo sapiens, UniProt P00439, R408W).
T1 construct: expressed in transfected cells
T1 sequence (P00439 1-452 R408W): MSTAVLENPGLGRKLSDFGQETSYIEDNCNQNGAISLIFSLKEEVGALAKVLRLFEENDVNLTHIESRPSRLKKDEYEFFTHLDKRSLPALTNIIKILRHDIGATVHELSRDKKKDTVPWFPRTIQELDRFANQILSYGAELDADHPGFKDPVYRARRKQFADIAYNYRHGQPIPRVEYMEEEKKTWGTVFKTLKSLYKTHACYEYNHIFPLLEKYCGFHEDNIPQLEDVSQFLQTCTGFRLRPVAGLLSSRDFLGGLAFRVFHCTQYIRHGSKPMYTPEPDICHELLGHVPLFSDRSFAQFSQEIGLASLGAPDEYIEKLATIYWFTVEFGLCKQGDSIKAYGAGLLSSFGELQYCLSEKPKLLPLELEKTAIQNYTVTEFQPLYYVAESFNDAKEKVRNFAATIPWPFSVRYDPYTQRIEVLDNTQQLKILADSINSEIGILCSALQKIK
Briefly: Cell Based Phenylalanine Flux Assay. Particulars: A375 cells expressing human R408W PAH; 24 hrs compound incubation; 13C-Tyrosine by LC-MS; average where tested multiple times; read-out: AC50.

Take `O=C(c1nnc(-c2cc[nH]n2)o1)N1CCc2[nH]cnc2[C@@H]1c1nc2c(F)cccc2s1` [Example 1885, (R)-(5-(1H-pyrazol-3-yl)-1,3,4-oxadiazol-2-yl)(4-(4-fluorobenzo[d]thiazol-2-yl)-6,7-dihydro-1H-imidazo[4,5-c]pyridin-5(4H)-yl)methanone]: the AC50 (usually the concentration giving half of the maximal activity seen) lay in the range of 1000 to 5000 nM.
Under `O=C(c1nnc(-c2cc[nH]n2)o1)N1CCc2[nH]cnc2[C@H]1c1nc2c(F)cccc2s1` [Example 1886] stands 500 to 1000 nM; under `O=C(c1nnc(-c2ccn(C(F)F)n2)o1)N1CCc2[nH]cnc2[C@@H]1c1nc2c(F)cccc2s1` [Example 1887, (R)-(5-(1-(difluoromethyl)-1H-pyrazol-3-yl)-1,3,4-oxadiazol-2-yl)(4-(4-fluorobenzo[d]thiazol-2-yl)-6,7-dihydro-1H-imidazo[4,5-c]pyridin-5(4H)-yl)methanone], 1000 to 5000 nM; under `O=C(c1nnc(-c2ccn(C(F)F)n2)o1)N1CCc2[nH]cnc2[C@H]1c1nc2c(F)cccc2s1` [Example 1888, (S)-(5-(1-(difluoromethyl)-1H-pyrazol-3-yl)-1,3,4-oxadiazol-2-yl)(4-(4-fluorobenzo[d]thiazol-2-yl)-6,7-dihydro-1H-imidazo[4,5-c]pyridin-5(4H)-yl)methanone], under 500 nM.
Under `O=C(c1nnc(-c2cc(C(F)(F)F)ccn2)o1)N1CCc2[nH]cnc2[C@H]1c1nc2ccccc2s1` [Example 1889, [(4S)-4-(1,3-benzothiazol-2-yl)-1,4,6,7-tetrahydroimidazo[4,5-c]pyridin-5-yl]-[5-[4-(trifluoromethyl)-2-pyridyl]-1,3,4-oxadiazol-2-yl]methanone] stands under 500 nM; under `O=C(c1nnc(-c2cc(C(F)(F)F)ccn2)o1)N1CCc2[nH]cnc2[C@@H]1c1nc2ccccc2s1` [Example 1890, [(4R)-4-(1,3-benzothiazol-2-yl)-1,4,6,7-tetrahydroimidazo[4,5-c]pyridin-5-yl]-[5-[4-(trifluoromethyl)-2-pyridyl]-1,3,4-oxadiazol-2-yl]methanone], 1000 to 5000 nM; under `O=C(c1nnc(C2CC(F)(F)C2)o1)N1CCc2[nH]cnc2[C@@H]1c1nc2c(F)cccc2s1` [Example 1891, (R)-(5-(3,3-difluorocyclobutyl)-1,3,4-oxadiazol-2-yl)(4-(4-fluorobenzo[d]thiazol-2-yl)-6,7-dihydro-1H-imidazo[4,5-c]pyridin-5(4H)-yl)methanone], 1000 to 5000 nM.
As to `O=C(c1nnc(C2CC(F)(F)C2)o1)N1CCc2[nH]cnc2[C@H]1c1nc2c(F)cccc2s1` [Example 1892, (S)-(5-(3,3-difluorocyclobutyl)-1,3,4-oxadiazol-2-yl)(4-(4-fluorobenzo[d]thiazol-2-yl)-6,7-dihydro-1H-imidazo[4,5-c]pyridin-5(4H)-yl)methanone], the AC50 was 500 to 1000 nM.
On to `CC(C)(C)OC(=O)N1CC(c2nnc(C(=O)N3CCc4[nH]cnc4[C@H]3c3nc4ccccc4s3)o2)C1` [Example 1893, (S)-tert-butyl 3-(5-(4-(benzo[d]thiazol-2-yl)-4,5,6,7-tetrahydro-1H-imidazo[4,5-c]pyridine-5-carbonyl)-1,3,4-oxadiazol-2-yl)azetidine-1-carboxylate], for which the concentration at half-maximal activity (AC50) was 500 to 1000 nM.
Then `CC(C)(C)OC(=O)N1CC(c2nnc(C(=O)N3CCc4[nH]cnc4[C@@H]3c3nc4ccccc4s3)o2)C1` [Example 1894, (R)-tert-butyl 3-(5-(4-(benzo[d]thiazol-2-yl)-4,5,6,7-tetrahydro-1H-imidazo[4,5-c]pyridine-5-carbonyl)-1,3,4-oxadiazol-2-yl)azetidine-1-carboxylate], with 1000 to 5000 nM.
For the compound `O=C(c1cnn(-c2ccccn2)c1Cl)N1CCc2[nH]cnc2[C@H]1c1nc2ccccc2s1` [Example 1895], the AC50 lay within 500 to 1000 nM.
Under `O=C(c1cnn(-c2ccccn2)c1Cl)N1CCc2[nH]cnc2[C@@H]1c1nc2ccccc2s1` [Example 1896, (R)-(4-(benzo[d]thiazol-2-yl)-6,7-dihydro-1H-imidazo[4,5-c]pyridin-5(4H)-yl)(5-chloro-1-(pyridin-2-yl)-1H-pyrazol-4-yl)methanone] stands 1000 to 5000 nM.
As to `CC(C)(O)c1nc(Br)c(C(=O)N2CCc3[nH]cnc3[C@H]2c2nc3c(F)cccc3s2)o1` [Example 1897, (S)-(4-bromo-2-(2-hydroxypropan-2-yl)oxazol-5-yl)(4-(4-fluorobenzo[d]thiazol-2-yl)-6,7-dihydro-1H-imidazo[4,5-c]pyridin-5(4H)-yl)methanone], the AC50 is under 500 nM.
Under `CC(C)(O)c1nc(Br)c(C(=O)N2CCc3[nH]cnc3[C@@H]2c2nc3c(F)cccc3s2)o1` [Example 1898, (R)-(4-bromo-2-(2-hydroxypropan-2-yl)oxazol-5-yl)(4-(4-fluorobenzo[d]thiazol-2-yl)-6,7-dihydro-1H-imidazo[4,5-c]pyridin-5(4H)-yl)methanone] stands 1000 to 5000 nM; under `O=C(c1nnc(-c2cc[nH]n2)o1)N1CCc2[nH]cnc2[C@H]1c1nc2ccccc2s1` [Example 1899], under 500 nM.
As for `O=C(c1nnc(-c2cc[nH]n2)o1)N1CCc2[nH]cnc2[C@@H]1c1nc2ccccc2s1` [Example 1900, (R)-(5-(1H-pyrazol-3-yl)-1,3,4-oxadiazol-2-yl)(4-(benzo[d]thiazol-2-yl)-6,7-dihydro-1H-imidazo[4,5-c]pyridin-5(4H)-yl)methanone], the concentration at half-maximal activity (AC50) lay within 1000 to 5000 nM.
Under `O=C(c1nnc(-c2ncccc2F)o1)N1CCc2[nH]cnc2[C@@H]1c1nc2c(F)cccc2s1` [Example 1901, (R)-(4-(4-fluorobenzo[d]thiazol-2-yl)-6,7-dihydro-1H-imidazo[4,5-c]pyridin-5(4H)-yl)(5-(3-fluoropyridin-2-yl)-1,3,4-oxadiazol-2-yl)methanone] stands 500 to 1000 nM; under `O=C(c1nnc(-c2ncccc2F)o1)N1CCc2[nH]cnc2[C@H]1c1nc2c(F)cccc2s1` [Example 1902, (S)-(4-(4-fluorobenzo[d]thiazol-2-yl)-6,7-dihydro-1H-imidazo[4,5-c]pyridin-5(4H)-yl)(5-(3-fluoropyridin-2-yl)-1,3,4-oxadiazol-2-yl)methanone], under 500 nM.
Regarding `Cc1ccc(-c2nnc(C(=O)N3CCc4[nH]cnc4[C@@H]3c3nc4c(F)cccc4s3)o2)nc1` [Example 1903, (R)-(4-(4-fluorobenzo[d]thiazol-2-yl)-6,7-dihydro-1H-imidazo[4,5-c]pyridin-5(4H)-yl)(5-(5-methylpyridin-2-yl)-1,3,4-oxadiazol-2-yl)methanone], the AC50 was 500 to 1000 nM.
As to `Cc1ccc(-c2nnc(C(=O)N3CCc4[nH]cnc4[C@H]3c3nc4c(F)cccc4s3)o2)nc1` [Example 1904, (S)-(4-(4-fluorobenzo[d]thiazol-2-yl)-6,7-dihydro-1H-imidazo[4,5-c]pyridin-5(4H)-yl)(5-(5-methylpyridin-2-yl)-1,3,4-oxadiazol-2-yl)methanone], the AC50 was under 500 nM.
Turning to `O=C(c1nnc(-c2cc(C(F)(F)F)ccn2)o1)N1CCc2[nH]cnc2[C@@H]1c1nc2c(F)cccc2s1` [Example 1905, (R)-(4-(4-fluorobenzo[d]thiazol-2-yl)-6,7-dihydro-1H-imidazo[4,5-c]pyridin-5(4H)-yl)(5-(4-(trifluoromethyl)pyridin-2-yl)-1,3,4-oxadiazol-2-yl)methanone], the AC50 was 500 to 1000 nM.
Under `O=C(c1nnc(-c2cc(C(F)(F)F)ccn2)o1)N1CCc2[nH]cnc2[C@H]1c1nc2c(F)cccc2s1` [Example 1906, (S)-(4-(4-fluorobenzo[d]thiazol-2-yl)-6,7-dihydro-1H-imidazo[4,5-c]pyridin-5(4H)-yl)(5-(4-(trifluoromethyl)pyridin-2-yl)-1,3,4-oxadiazol-2-yl)methanone] stands under 500 nM; under `O=C(c1cn(-c2ccccn2)nc1Cl)N1CCc2[nH]cnc2[C@H]1c1nc2ccccc2s1` [Example 1907], 500 to 1000 nM; under `O=C(c1cn(-c2ccccn2)nc1Cl)N1CCc2[nH]cnc2[C@@H]1c1nc2ccccc2s1` [Example 1908, (R)-(4-(benzo[d]thiazol-2-yl)-6,7-dihydro-1H-imidazo[4,5-c]pyridin-5(4H)-yl)(3-chloro-1-(pyridin-2-yl)-1H-pyrazol-4-yl)methanone], 1000 to 5000 nM.
Under `O=C(C1CN(c2ncccc2F)C1)N1CCc2[nH]cnc2[C@H]1c1nc2ccccc2s1` [Example 1909] stands 500 to 1000 nM; under `O=C(C1CN(c2ncccc2F)C1)N1CCc2[nH]cnc2[C@@H]1c1nc2ccccc2s1` [Example 1910, (R)-(4-(benzo[d]thiazol-2-yl)-6,7-dihydro-1H-imidazo[4,5-c]pyridin-5(4H)-yl)(1-(3-fluoropyridin-2-yl)azetidin-3-yl)methanone], over 5000 nM; under `Cc1nc([C@H](C)O)oc1C(=O)N1CCc2[nH]cnc2[C@H]1c1nc2c(F)cccc2s1` [Example 1911, ((S)-4-(4-fluorobenzo[d]thiazol-2-yl)-6,7-dihydro-1H-imidazo[4,5-c]pyridin-5(4H)-yl)(2-((S)-1-hydroxyethyl)-4-methyloxazol-5-yl)methanone], 500 to 1000 nM.
For the compound `Cc1nc([C@H](C)O)oc1C(=O)N1CCc2[nH]cnc2[C@@H]1c1nc2c(F)cccc2s1` [Example 1912, ((R)-4-(4-fluorobenzo[d]thiazol-2-yl)-6,7-dihydro-1H-imidazo[4,5-c]pyridin-5(4H)-yl)(2-((S)-1-hydroxyethyl)-4-methyloxazol-5-yl)methanone], the half-maximal activity concentration (AC50) is over 5000 nM.
